Read-outs that look alike come from different tables or passages of the source. Each block holds one compound with its values, some of them ahead of it.
Columns and labels:
[1] = cited from earlier work
[2] = Solubility of MG005 and MG010; format: physicochemical; settings: in words
[3] = parameters: method as in PMID 26100670; settings: in vitro and in vivo studies; cited from earlier work
[4] = cited from earlier work; remark: listed apart in the source
[5] = Pharmacokinetics assessments in phase I patients (plasma, steady state); settings: for Tmax,ss: median (range); for AUC: AUC0→τ,ss
Method: This was a dual-agent, open-label, phase I study. […] We conducted the trial following the 3 + 3 dose-escalation phase I clinical trial design. […] There were three cohorts and at least […] were enrolled for each dose level. No intra-patient dose escalation was allowed, and each patient’s first dose was at least 5 days apart from the next patient’s first dose. DLTs were assessed during the initial 8-week and 4-week treatment periods for Cohort 1 and Cohorts 2/3, respectively. The criteria for DLTs are listed in Supplementary Table S1. […] The enrolled patients were treated until disease progression.
A plasma concentration–time profile for MG005 as a single agent was established, and PK parameters in terms of the following were also determined: peak plasma concentration (Cmax)/at steady state (Cmax,ss); time to reach peak concentration (Tmax)/at steady state (Tmax,ss); AUC in 1 dosing interval at steady state (AUC0→τ,ss).

[6] = Day 28, Cohort 1: 750 mg QD MG005 plus 200 mg QD sorafenib, mean ± SD
[7] = Day 28, Cohort 2: 1500 mg QD MG005 plus 200 mg QD sorafenib, mean ± SD
[8] = Day 28, Cohort 2: 1500 mg QD MG005 plus 200 mg QD sorafenib
[9] = Day 28, Cohort 3: 750 mg BID MG005 plus 200 mg QD sorafenib, mean ± SD

SMILES: O=C1Nc2ccc(I)cc2/C1=C/c1cc(Br)c(O)c(Br)c1 [GW5074]
findings of repeated toxicity studies ([1]; rat, in vivo): did not cause major abnormality except emesis and watery stool
no-observed-adverse-effect-level (NOAEL) ([1]; repeated dosing): highest dose levels tested
solubility [2]: not satisfactory
solubility ([2]; listed as MG005): poor solubility
mutagenicity and genotoxicity [3]: neither mutagenic nor genotoxic
findings of repeated toxicity studies ([4]; dog, in vivo): did not cause major abnormality except emesis and watery stool
no-observed-adverse-effect-level (NOAEL) ([4]; repeated dosing): highest dose levels tested
AUC0→τ,ss [5, 6]: 5639.9 ± 2675.9 ng·h/mL
Cmax,ss [5, 6]: 685.6 ± 335.4 ng/mL
Tmax,ss ([5]; Day 28, Cohort 1: 750 mg QD MG005 plus 200 mg QD sorafenib): 6.0 (5.0–6.0) Hr
AUC0→τ,ss [5, 7]: 5553.7 ± 950.2 ng·h/mL
Cmax,ss [5, 7]: 786.0 ± 180.0 ng/mL
Tmax,ss [5, 8]: 4.0 (2.1–4.1) Hr
AUC0→τ,ss [5, 9]: 6249.6 ± 2619.6 ng·h/mL
Cmax,ss [5, 9]: 620.0 ± 382.6 ng/mL
Tmax,ss ([5]; Day 28, Cohort 3: 750 mg BID MG005 plus 200 mg QD sorafenib): 14.0 (0.0–23.9) Hr
bioavailability ([5]; patients, oral): low bioavailability
absorption ([5]; patients, 750 mg QD to 1500 mg QD gave no significant increase in bioavailability): poor absorption
half-life ([5]; patients, compared to sorafenib): significantly shorter half-life when compared to sorafenib

Tmax,ss [5, 8]: 8.0 (2.1–23.5) Hr
AUC ([5]; human, plasma, oral, Day 28, Cohort 1: 750 mg QD MG005 plus 200 mg QD sorafenib, mean ± SD): 88600 ng·h/mL
AUC ([5]; human, plasma, oral, Day 28, Cohort 2: 1500 mg QD MG005 plus 200 mg QD sorafenib, mean ± SD): 51400 ng·h/mL
AUC ([5]; human, plasma, oral, Day 28, Cohort 3: 750 mg BID MG005 plus 200 mg QD sorafenib, mean ± SD): 30600 ng·h/mL
Cmax ([5]; human, plasma, oral, Cmax,ss, Day 28, Cohort 2: 1500 mg QD MG005 plus 200 mg QD sorafenib, mean ± SD): 3730 ± 1530 ng/mL
SMILES: CNC(=O)c1cc(Oc2ccc(NC(=O)Nc3ccc(Cl)c(C(F)(F)F)c3)cc2)ccn1 [sorafenib, reference compound]

From paper PMC9031611 (Journal of Clinical Medicine, 2022)
